Legend:
[1] = target: T1, Human M3 receptor (Homo sapiens, UniProt P20309); assay: M3 Receptor Radioligand Binding Assay; settings: human M3 receptor membranes, [3H]-N-methyl scopolamine; read-out: M3 binding affinity (Ki class)
T1 construct: purchased Perkin Elmer
Experimental: Biological Characterization M3 Receptor Radioligand Binding Assay
The assay was carried out in 96-well polypropylene plates in a volume of 250 ul. […] The final assay concentration of DMSO was 0.5% (v/v). The plates were sealed and incubated for 2 h at room temperature on an orbital shaker (slow speed). Membranes were harvested onto 96-well unifilter GF/C filter plates pre-treated with 0.5% polyethyleneimine (v/v), using a filter manifold, washed four times with 200 ul of assay buffer. The plates were dried before addition of 50 μl of microscint-0, sealed then read in a Trilux Microbeta scintillation counter.

[2] = target: T2, Human β2 adrenoceptor (Homo sapiens, UniProt P07550); assay: β2 Adrenoceptor Radioligand Binding Assay; settings: human β2 adrenoceptor membranes, 125-I Cyanopindolol; read-out: B2 binding affinity (Ki class)
T2 construct: purchased Perkin Elmer
T2 sequence (P07550 whole entry): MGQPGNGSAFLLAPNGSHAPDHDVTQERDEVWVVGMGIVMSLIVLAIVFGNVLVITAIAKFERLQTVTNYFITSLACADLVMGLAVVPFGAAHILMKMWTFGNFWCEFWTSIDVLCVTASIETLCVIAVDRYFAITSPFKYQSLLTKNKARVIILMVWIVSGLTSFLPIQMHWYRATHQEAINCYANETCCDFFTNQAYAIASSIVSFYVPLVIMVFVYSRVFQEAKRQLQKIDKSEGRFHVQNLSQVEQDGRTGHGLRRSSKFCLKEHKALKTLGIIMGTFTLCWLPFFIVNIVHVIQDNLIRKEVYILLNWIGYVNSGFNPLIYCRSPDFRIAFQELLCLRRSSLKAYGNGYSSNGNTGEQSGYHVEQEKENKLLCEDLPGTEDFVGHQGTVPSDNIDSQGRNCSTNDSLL
Experimental: β2 Adrenoceptor Radioligand Binding Assay
The assay was carried out in 96-well polypropylene plates in a volume of 200 ul. The assay buffer used was 25 mM HEPES, 0.5% BSA (w/v), 1 mM EDTA, 0.02% ascorbic acid (v/v), (pH 7.4). The final assay concentration of DMSO was 0.5% (v/v). The plates were sealed and incubated for 1 h at room temperature on an orbital shaker (slow speed). Membranes were harvested onto 96-well unifilter GF/C filter plates pre-treated with 0.5% polyethyleneimine (v/v), using a filter manifold, washed six times with 200 ul of wash buffer containing 10 mM HEPES and 500 mM NaCl. The plates were dried before addition of 50 μl of microscint-0, sealed then read in a Trilux Microbeta scintillation counter. IC50 values are determined from competition curves using a non-linear curve fitting program. Ki values were calculated from IC50 values by the Cheng and Prusoff equation.

T1 sequence (P20309 whole entry): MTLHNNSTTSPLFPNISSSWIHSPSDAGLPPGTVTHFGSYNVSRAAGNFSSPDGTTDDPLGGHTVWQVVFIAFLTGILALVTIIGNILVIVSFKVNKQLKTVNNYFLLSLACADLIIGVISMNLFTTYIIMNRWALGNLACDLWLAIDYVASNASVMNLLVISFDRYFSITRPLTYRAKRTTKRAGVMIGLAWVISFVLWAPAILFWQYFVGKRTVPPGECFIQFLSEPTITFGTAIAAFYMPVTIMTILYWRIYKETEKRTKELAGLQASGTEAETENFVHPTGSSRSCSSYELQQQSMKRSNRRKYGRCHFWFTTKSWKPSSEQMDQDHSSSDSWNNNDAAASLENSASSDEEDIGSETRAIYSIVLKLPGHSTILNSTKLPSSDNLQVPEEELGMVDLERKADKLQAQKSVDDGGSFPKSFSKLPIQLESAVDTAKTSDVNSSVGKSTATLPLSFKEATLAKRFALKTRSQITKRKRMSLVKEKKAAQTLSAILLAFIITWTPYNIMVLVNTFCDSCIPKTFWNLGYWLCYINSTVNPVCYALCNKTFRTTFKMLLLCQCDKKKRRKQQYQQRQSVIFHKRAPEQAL

## CN(CCCNC[C@H](O)c1ccc(O)c2[nH]c(=O)ccc12)C(=O)c1ccc(CCC(=O)N2CCC(C(=O)O[C@H]3CN4CCC3CC4)(c3ccccc3)CC2)cc1 [Compound 53, (R)-Quinuclidin-3-yl 1-(3-(4-((3-(((R)-2-hydroxy-2-(8-hydroxy-2-oxo-1,2-dihydroquinolin-5-yl)ethyl)amino)propyl)(methyl)carbamoyl)phenyl)propanoyl)-4-phenylpiperidine-4-carboxylate]
[1]
  Ki: 1 to 10 nM
[2]
  Ki: 1 to 10 nM

## CNC(=O)N(Cc1ccc(CNC[C@H](O)c2ccc(O)c3[nH]c(=O)ccc23)cc1)Cc1ccc(C(=O)N2CCC(C(=O)O[C@H]3CN4CCC3CC4)(c3ccccc3)CC2)cc1 [Compound 63, (R)-Quinuclidin-3-yl 1-(4-((1-(4-((((R)-2-hydroxy-2-(8-hydroxy-2-oxo-1,2-dihydroquinolin-5-yl)ethyl)amino)methyl)benzyl)-3-methylureido)methyl)benzoyl)-4-phenylpiperidine-4-carboxylate]
[1]
  Ki: < 1 nM
[2]
  Ki: 1 to 10 nM

## O=C(CCc1ccc(OCCCCCNC[C@H](O)c2ccc(O)c3[nH]c(=O)ccc23)c(-c2ccccc2)c1)N1CCC(C(=O)O[C@H]2CN3CCC2CC3)(c2ccccc2)CC1 [Compound 16, (R)-Quinuclidin-3-yl 1-(3-(6-((5-(((R)-2-hydroxy-2-(8-hydroxy-2-oxo-1,2-dihydroquinolin-5-yl)ethyl)amino)pentyl)oxy)-[1,1′-biphenyl]-3-yl)propanoyl)-4-phenylpiperidine-4-carboxylate]
[1]
  Ki: 1 to 10 nM
[2]
  Ki: < 1 nM

## CN(CCCNC[C@H](O)c1ccc(O)c2[nH]c(=O)ccc12)C(=O)Cc1ccc(CC(=O)N2CCC(C(=O)O[C@H]3CN4CCC3CC4)(c3ccccc3)CC2)cc1 [Compound 47, (R)-Quinuclidin-3-yl 1-(2-(4-(2-((3-(((R)-2-hydroxy-2-(8-hydroxy-2-oxo-1,2-dihydroquinolin-5-yl)ethyl)amino)propyl)(methyl)amino)-2-oxoethyl)phenyl)acetyl)-4-phenylpiperidine-4-carboxylate]
[1]
  Ki: 1 to 10 nM
[2]
  Ki: 1 to 10 nM

## CCN(CCCNC[C@H](O)c1ccc(O)c2[nH]c(=O)ccc12)C(=O)c1ccc(CCC(=O)N2CC(C(=O)O[C@H]3CN4CCC3CC4)(c3ccccc3)C2)cc1 [Compound 12A, (R)-Quinuclidin-3-yl 1-(3-(4-(ethyl(3-(((R)-2-hydroxy-2-(8-hydroxy-2-oxo-1,2-dihydroquinolin-5-yl)ethyl)amino)propyl)carbamoyl)phenyl)propanoyl)-3-phenylazetidine-3-carboxylate]
[1]
  Ki: 1 to 10 nM
[2]
  Ki: 1 to 10 nM

## CCN(CCCNC[C@H](O)c1ccc(O)c2[nH]c(=O)ccc12)C(=O)c1ccc(C(=O)N2CCC(C(=O)O[C@H]3CN4CCC3CC4)(c3ccccc3)CC2)cc1 [Compound 25, (R)-Quinuclidin-3-yl 1-(4-(ethyl(3-(((R)-2-hydroxy-2-(8-hydroxy-2-oxo-1,2-dihydroquinolin-5-yl)ethyl)amino)propyl)carbamoyl)benzoyl)-4-phenylpiperidine-4-carboxylate]
[1]
  Ki: 1 to 10 nM
[2]
  Ki: 1 to 10 nM

## O=C(c1ccc(OCc2ccc(CNC[C@H](O)c3ccc(O)c4[nH]c(=O)ccc34)cc2)cc1)N1CCC(C(=O)O[C@H]2CN3CCC2CC3)(c2ccccc2)CC1 [Compound 24, (R)-Quinuclidin-3-yl 1-(4-((4-((((R)-2-hydroxy-2-(8-hydroxy-2-oxo-1,2-dihydroquinolin-5-yl)ethyl)amino)methyl)benzyl)oxy)benzoyl)-4-phenylpiperidine-4-carboxylate]
[1]
  Ki: < 1 nM
[2]
  Ki: < 1 nM

## O=C(Cc1ccc(OCCCCCNC[C@H](O)c2ccc(O)c3[nH]c(=O)ccc23)c(-c2ccsc2)c1)N1CCC(C(=O)O[C@H]2CN3CCC2CC3)(c2ccccc2)CC1 [Compound 14, (R)-Quinuclidin-3-yl 1-(2-(4-((5-(((R)-2-hydroxy-2-(8-hydroxy-2-oxo-1,2-dihydroquinolin-5-yl)ethyl)amino)pentyl)oxy)-3-(thiophen-3-yl)phenyl)acetyl)-4-phenylpiperidine-4-carboxylate]
[1]
  Ki: 1 to 10 nM
[2]
  Ki: < 1 nM
